The values that follow come from PubChem BioAssay (NCI).

SMILES strings stand for the structures.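 Exposure lasted 48 hours, with cells grown in 96-well plates and compounds tested at five concentrations. TGI: total growth inhibition.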 *1 amine or outer side, *2 acyl side, *3 side chain or, on linkers, in order; H or OH if unused. Where a SMILES comes first, the peptide text is derived from it. [ ]: non-standard residue; d: D form. ξ: configuration not given here. X22 = O=C(C(CC(O)CO)O[*:1])[*:2]; Ile(3ξ) = CCC(C)[C@H](N)C(=O)O; NMeV = CN[C@H](C(=O)O)C(C)C; NMeA = CN[C@@H](C)C(=O)O; βAla = NCCC(=O)O

Some test systems named below: HOP-62 NSCLC; HT29 colon; IGROV1 ovarian; MOLT-4 leukemia; NCI-H226 lung; OVCAR-3 ovarian; OVCAR-4 ovarian; OVCAR-5 ovarian; RXF 393 renal; SF-268 CNS; SF-539 CNS; SK-MEL-28 melanoma; SK-OV-3 ovarian; SR leukemia; TK-10 renal; U251 CNS; A498 renal; NCI/ADR-RES ovarian; DU-145 prostate; MDA-MB-435.
What all share (test): NCI-60 cell line screen, 48 h

For the compound `CCOC(=O)C1=C(c2ccccc2)N(C(C)=O)Cc2ccccc21`, the TGI in the test on HOP-62 NSCLC was 44.3 µM; in the test with HT29 colon, 33.8 µM; in the test on IGROV1 ovarian, > 100 µM; in the test with MOLT-4 leukemia, 34.8 µM; in the test on NCI-H226 lung, 50.5 µM; in the test on OVCAR-3 ovarian, 43.2 µM. In addition, the TGI in the test on OVCAR-4 ovarian is > 100 µM; in the test with OVCAR-5 ovarian, > 100 µM; with RXF 393 renal, 68.2 µM; with SF-268 CNS, 64.8 µM; in the test on SF-539 CNS, 30.9 µM; in the test on SK-MEL-28 melanoma, 36.6 µM. Also, the TGI was > 100 µM with SK-OV-3 ovarian, 41.7 µM in the test with SR leukemia, > 100 µM in the test with TK-10 renal and 36.8 µM in the test with U251 CNS.

Regarding `CC(NC(=O)OC(C)(C)C)C(=O)NC(Cc1ccccc1)C(=O)NCC(=O)Oc1c(Cl)c(Cl)c(Cl)c(Cl)c1Cl` (stereo not given), the TGI amounted to 47.8 µM in the test on A498 renal; 37.4 µM with HOP-62 NSCLC; 73.2 µM in the test on HT29 colon; 44.2 µM with IGROV1 ovarian; 59.3 µM in the test with MOLT-4 leukemia; 43.5 µM in the test with NCI-H226 lung. In addition, the TGI in the test with OVCAR-5 ovarian is 42.8 µM; in the test with RXF 393 renal it was 35.4 µM; in the test with SK-MEL-28 melanoma, 71.1 µM; in the test on SR leukemia it was 64.7 µM; in the test with TK-10 renal it was 71.5 µM; in the test with U251 CNS, 46.7 µM.

For `C[N+]1(C)C[C@@H](O)C[C@@H]1C(=O)[O-]`, the TGI with A498 renal, in the test with HOP-62 NSCLC, in the test with HT29 colon, with IGROV1 ovarian, with MOLT-4 leukemia and in the test with NCI-H226 lung was > 100 µM each time. Besides, the TGI with OVCAR-3 ovarian, in the test on OVCAR-4 ovarian, in the test with RXF 393 renal, with SF-268 CNS, in the test on SF-539 CNS and with SK-MEL-28 melanoma was > 100 µM in each case. Also, the TGI in the test with SK-OV-3 ovarian, in the test with SR leukemia, with TK-10 renal and in the test on U251 CNS was > 100 µM each time.

`CCOC(=O)c1c2ccc(/C=C/c3ccccc3)ccc-2c(C(=O)OCC)c1N`: the TGI in the test on A498 renal is 99.8 µM; in the test on HT29 colon it was > 100 µM; with IGROV1 ovarian, > 100 µM; with MOLT-4 leukemia, > 100 µM; with NCI-H226 lung it was > 100 µM; in the test on OVCAR-3 ovarian, > 100 µM. Also, the TGI in the test with OVCAR-4 ovarian, in the test on OVCAR-5 ovarian, in the test on RXF 393 renal, in the test on SF-268 CNS, with SF-539 CNS and with SK-MEL-28 melanoma was > 100 µM each time. The TGI with SK-OV-3 ovarian, in the test on SR leukemia and in the test on TK-10 renal was > 100 µM throughout.

`COC(=O)/C=C(\C)CC/C=C(\C)CCC(O)C(C)(C)O` (stereo not given): the TGI in the test on A498 renal is > 100 µM; in the test with HOP-62 NSCLC, 78 µM; in the test with HT29 colon it was > 100 µM; in the test with IGROV1 ovarian, > 100 µM; in the test with MOLT-4 leukemia it was 39 µM; in the test on NCI-H226 lung, > 100 µM. The TGI was 52.5 µM in the test on NCI/ADR-RES ovarian; 65.3 µM in the test with OVCAR-3 ovarian; > 100 µM in the test on OVCAR-4 ovarian; > 100 µM in the test with OVCAR-5 ovarian; 59.9 µM in the test on RXF 393 renal; 35.9 µM with SF-539 CNS. Moreover, the TGI in the test on SK-MEL-28 melanoma was 38.2 µM; in the test on SK-OV-3 ovarian it was > 100 µM; with SR leukemia, 44.6 µM; in the test on TK-10 renal it was > 100 µM; in the test with U251 CNS it was 79.3 µM.

As for `COC(=O)C(Cc1nc2ccccc2[nH]c1=O)C(=O)C(=O)Nc1ccc(F)cc1` (stereo not given), the TGI with HOP-62 NSCLC, with HT29 colon, in the test with IGROV1 ovarian, with MOLT-4 leukemia, in the test with NCI-H226 lung and in the test with OVCAR-3 ovarian was > 100 µM in each case. Further, the TGI in the test on OVCAR-4 ovarian is > 100 µM; in the test on RXF 393 renal, 47.1 µM; in the test with SF-268 CNS it was 56.4 µM; in the test with SF-539 CNS it was > 100 µM; in the test with SK-MEL-28 melanoma it was 89.1 µM; in the test with SK-OV-3 ovarian, > 100 µM. The TGI with SR leukemia and in the test with TK-10 renal was > 100 µM in each case.

Turning to `COc1ccc2nc3c([N+](=O)[O-])ccc(NCCN(C)C)c3c(NCCN(C)C)c2c1`, the TGI in the test with DU-145 prostate was > 10 µM; in the test on HOP-62 NSCLC, 2.73 µM; in the test with HT29 colon, 4.51 µM; in the test with IGROV1 ovarian it was 5.13 µM; with MDA-MB-435, 3.01 µM; in the test with MOLT-4 leukemia, 0.732 µM. The TGI is 1.86 µM in the test on OVCAR-4 ovarian; 2.33 µM in the test on RXF 393 renal; > 10 µM in the test on SF-268 CNS; 4.15 µM in the test with SK-MEL-28 melanoma; > 10 µM in the test with SK-OV-3 ovarian; 0.634 µM in the test on SR leukemia. Besides, in the test with TK-10 renal, the TGI was > 10 µM.

In the case of `CCC(C)[C@@H]1NC(=O)[C@@H]2CCCN2C(=O)C(CC(O)CO)OC(=O)CCNC(=O)[C@H](C)N(C)C(=O)[C@H](C(C)C)N(C)C1=O` (stereo not given in full) (cyclo([Ile(3ξ)][NMeV][NMeA][βAla][X22]P)), the TGI with A498 renal, in the test on HOP-62 NSCLC, with HT29 colon, in the test on IGROV1 ovarian, in the test with MOLT-4 leukemia and in the test with NCI-H226 lung was > 100 µM in each case. Also, the TGI in the test with OVCAR-3 ovarian, in the test with OVCAR-4 ovarian, in the test on OVCAR-5 ovarian, with RXF 393 renal, with SF-268 CNS and in the test with SF-539 CNS was > 100 µM throughout. Moreover, the TGI in the test on SK-MEL-28 melanoma, in the test on SK-OV-3 ovarian, in the test with SR leukemia, in the test with TK-10 renal and in the test with U251 CNS was > 100 µM throughout.

Turning to `COC(=O)C1(O)c2ccccc2N=C2C1CCN2C` (stereo not given), the TGI in the test with A498 renal, with HOP-62 NSCLC, in the test with HT29 colon, in the test on IGROV1 ovarian, with MOLT-4 leukemia and in the test on OVCAR-4 ovarian was > 100 µM in each case. The TGI in the test on OVCAR-5 ovarian, in the test on RXF 393 renal, in the test with SF-268 CNS, with SF-539 CNS, with SK-MEL-28 melanoma and with SK-OV-3 ovarian was > 100 µM each time. The TGI in the test with SR leukemia, in the test with TK-10 renal and in the test on U251 CNS was > 100 µM in each case.
